According to patent US5633276A, “Indoline derivatives, method of preparation and use” (Glaxo Group Limited, priority 1993, dated 1997):
Counter-ions that a name gives are not always drawn.

molecular target: melatonin receptors in chicken retinal membranes; assay: Binding to melatonin receptors in chicken retinal membranes; settings: method of Dubocovich and Takahashi, read-out: Chicken retina Ki
Source text: (§1) The results obtained for particular compounds according to the present invention are as follows:

| Ki | Structure (SMILES) |
| --- | --- |
| 0.42 nM | CC(=O)NCCN1CCc2ccc3c(c21)CCO3 [Example 3, N-[2-(2,3,7,8-Tetrahydro-1H-furo[2,3-g]indol-1-yl)ethyl]-acetamide] |
| 3.21 nM | CC(=O)NCCN1CCc2cc(Cl)c3c(c21)CCO3 [Example 5, N-[2-(5-Chloro-2,3,7,8-tetrahydro-1H-furo[2,3-g]indol-1-yl)-ethyl]-acetamide] |
| 1.68 nM | O=C(NCCN1CCc2ccc3c(c21)CCO3)C1CC1 [Example 6, Cyclopropanecarboxylic acid [2-(2,3,7,8-tetrahydro-1H-furo[2,3-g]indol-1-yl)-ethyl]-amide] |
| 4.92 nM | CC(=O)NCCN1CCc2ccc3c(c21)CCCO3 [Example 2, N-[2-(2,3,8,9-Tetrahydro-7H-pyrano[2,3-g]indol-1-yl)-ethyl]-acetamide hydrochloride] |

tested on: rabbit retina; assay: Melatonin agonist or antagonist activity in rabbit retina; format: cell-based; settings: Oryctolagus cuniculus, method of Dubocovich
Source text: as §1

| IC50 | Structure (SMILES) |
| --- | --- |
| 0.04 nM | CC(=O)NCCN1CCc2ccc3c(c21)CCO3 [Example 3, N-[2-(2,3,7,8-Tetrahydro-1H-furo[2,3-g]indol-1-yl)ethyl]-acetamide] |
| 0.2 nM | O=C(NCCN1CCc2ccc3c(c21)CCO3)C1CC1 [Example 6, Cyclopropanecarboxylic acid [2-(2,3,7,8-tetrahydro-1H-furo[2,3-g]indol-1-yl)-ethyl]-amide] |
| 0.95 nM | CC(=O)NCCN1CCc2ccc3c(c21)CCCO3 [Example 2, N-[2-(2,3,8,9-Tetrahydro-7H-pyrano[2,3-g]indol-1-yl)-ethyl]-acetamide hydrochloride] |
